# Reference: patent publication US20250000822A1, “USE OF 2-HYDROXYBENZYLAMINE FOR THE TREATMENT OF SYSTEMIC LUPUS” (Vanderbilt University, priority 2019, published 2025)
# Entries after “also recorded” stand apart in the source; their conditions may differ.
# Assays:
# B6.SLE123 mice [1] = experiment: SLE-associated renal injury and dysfunction, B6.SLE123 mice; format: in vivo
# Description: Kidneys were sectioned and stained with […] silver stain; (A) representative glomeruli are presented. (B) Mice received IP injection of 4% normal saline at 10% of body weight and urine output was measured over 4 hours. (C) Urine albumin/creatine ratio. (D) Urinary NGAL. (n=6-8, *P<0.05, **P<0.01, ****P<0.0001).
# The present inventors have also shown that 2-HOBA protects against SLE-associated renal injury and dysfunction. […] To assess renal function, 2-HOBA treated and untreated B6.SLE123 animals were injected with 4% normal saline at a volume equal to 10% of their body weight, and urine volume was measured over 4 hours.
# healthy human volunteers [2] = conditions: single doses up to 825 mg (highest dose tested); cited from earlier work
# healthy human volunteers [3] = conditions: 500 and 750 mg TID for 2 weeks; cited from earlier work
# [4] = reaction of 2-HOBA with isoLGs (isoLG scavenging)
# From the text: (§1) 2-HOBA, for example, is naturally found in buckwheat seeds. 2-HOBA is highly reactive and found to react with isoLGs at a rate more than 3 orders of magnitude faster than the e-amine of lysine (see FIG. 3). By selectively reacting with isoLGs, 2-HOBA inhibits isoLG:protein adduct formation and subsequent isoLG-induced cell dysfunction.
# B6.SLE123 mice [5] = experiment: plasma cell expansion and antibody titers, B6.SLE123 mice; format: in vivo
# Description: (A) Representative FACS plots displaying CD138^+ and intracellular Igκ-light-chain^+ plasma cells from bone marrow. Quantitation of plasma cells as a percentage of CD45 cells are represented for (B) bone marrow. (C) Anti-dsDNA IgG antibody and (D) total plasma IgG at 1:100K dilution were analyzed by ELISA. (n=5-7, *P<0.05, **P<0.01, ***P<0.001, ****P<0.0001).
# The present inventors have also shown that 2-HOBA reduces bone marrow plasma cell expansion and anti-dsDNA antibody titers. SLE is associated with an expansion of plasma cells and an amplification of auto-antibodies. Autoreactive plasma cells are believed to play an important role in SLE by generating antibodies that lead to the creation of immune complexes which deposit in peripheral tissues. Flow cytometry was performed to identify CD138^+/Igκ-light-chain^+ plasma cells in spleen and bone marrow cell preparations from B6.SLE123 animals treated with vehicle or 2-HOBA. B6.SLE123 animals had significant accumulation of spleen and bone marrow plasma cells which were attenuated by 2-HOBA (FIG. 7A-C).
# B6.SLE123 mice [6] = experiment: isoLG adduct accumulation in monocytes and dendritic cells of SLE-prone mice (flow cytometry); format: in vivo; conditions: B6.SLE123 mice treated from 7 weeks of age, analysed at 32 weeks
# Description: Quantitation of isoLG-adduct containing cells in (C) splenic DCs (D) circulating monocytes. (n=5-9, *P<0.05, **P<0.01, ***P<0.001, ****P<0.0001).
# The present inventors have also shown that 2-HOBA reduces isoLG accumulation in monocytes and dendritic cells (DCs) of SLE-prone mice. B6.SLE123 mice were treated with 2-HOBA starting at 7 weeks of age (prior to disease presentation). At 32 weeks of age, peripheral blood, spleen, and bone marrow cells were harvested from B6.SLE123 and control (C57BL/6) mice. Flow cytometry was used to detect the surface markers CD11c, IAb, CD11b, F4/80, and Ly6c and isoLG adducts.
# B6.SLE123 mice [7] = experiment: SLE-associated renal inflammation, B6.SLE123 mice; format: in vivo
# Description: Single cell suspensions were prepared from freshly isolated mouse kidney via enzymatic digestion and mechanical dissociation. Live cell singlets were analyzed. Representative FACS plots are presented for (A) CD3^+ T-cells. Quantitation of (B) CD45^+ leukocytes and (C) CD3^+ T-cells are represented. (n=6-8, *P<0.05, **P<0.01).
# The present inventors have also shown that 2-HOBA reduces SLE-associated inflammation.
# HepG2 cells = experiment: protection of HepG2 cells against H2O2-induced cytotoxicity; format: cell-based
# From the text: as §1
# [8] = in vitro, in animals, or in humans, to date; cited from earlier work
# [9] = SLE-prone mice, kidney sections
# [10] = B6.SLE123, CD138+/Igκ-light-chain+ cells, flow cytometry
smiles,measurement,setting,value
"NCc1ccccc1O [2-HOBA, 2-hydroxybenzylamine]",albumin to creatinine ratio,"B6.SLE123 mice [1]; B6.SLE123 mice, urine",improved
same,NGAL excretion,"B6.SLE123 mice [1]; B6.SLE123 mice, urine, marker of tubular injury",improved
same,urine volume,"B6.SLE123 mice [1]; B6.SLE123 mice, over 4 hours after injection of 4% normal saline at 10% of body weight",improved
same,glomerular hypercellularity,B6.SLE123 mice [1]; [9],markedly improved
same,immune complex deposition,B6.SLE123 mice [1]; [9],markedly improved
same,renal injury and dysfunction,B6.SLE123 mice [1]; mouse model of SLE (FIG. 6 legend),attenuates
same,safety and tolerability of single doses,healthy human volunteers [2],safe and well-tolerated
same,accumulation of 2-HOBA and its primary metabolite,healthy human volunteers [3],low
same,serious adverse events,healthy human volunteers [3],no serious adverse events
same,tolerability of multiple doses,healthy human volunteers [3],well tolerated
same,isoLG scavenging,[4],potent isoLG scavengers
same,"rate of reaction with isoLGs, faster than the e-amine of lysine",[4]; relative to e-amine of lysine,more than 3 orders of magnitude
same,plasma anti-dsDNA antibody titers,"B6.SLE123 mice [5]; B6.SLE123, ELISA",reduces; also recorded: markedly lower
same,total IgG antibody titers,"B6.SLE123 mice [5]; B6.SLE123, plasma, ELISA",reduces; also recorded: markedly lower
same,accumulation of bone marrow plasma cells,B6.SLE123 mice [5]; [10],reduces; also recorded: attenuated
same,accumulation of spleen plasma cells,B6.SLE123 mice [5]; [10],attenuated
same,isoLG accumulation in monocytes,B6.SLE123 mice [6]; peripheral blood monocytes,efficient scavenging; also recorded: significantly attenuated
same,isoLG accumulation in DCs,B6.SLE123 mice [6]; splenic dendritic cells,efficient scavenging; also recorded: significantly attenuated
same,renal inflammation,B6.SLE123 mice [7],markedly reduced
same,renal CD3+ T-cells,"B6.SLE123 mice [7]; kidney, flow cytometry",reduction
same,renal CD45+ cells,"B6.SLE123 mice [7]; kidney, flow cytometry",reduction
same,protection against H2O2-induced cytotoxicity,HepG2 cells,dramatically protected
same,serious adverse effects or potential issues observed,[8],no serious adverse effects or potential issues
